{
  "source": "paper PMC5296862",
  "about": "“Targeting the molecular chaperone SlyD to inhibit bacterial growth with a small molecule” (Scientific Reports, 2017)",
  "target": "T1, SlyD (EcSlyD) (Escherichia coli, UniProt P0A9K9)",
  "T1 construct": "residues 1–165, lacking the unstructured C-terminal tail",
  "T1 sequence (P0A9K9 1-165)": "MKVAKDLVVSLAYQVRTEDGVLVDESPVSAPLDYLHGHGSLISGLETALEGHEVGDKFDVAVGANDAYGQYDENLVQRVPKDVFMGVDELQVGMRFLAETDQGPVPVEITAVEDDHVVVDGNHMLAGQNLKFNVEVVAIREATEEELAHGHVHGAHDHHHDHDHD",
  "assay": "intrinsic fluorescence titration; supported by 2D 1H-15N HSQC NMR titration, in-cell NMR and PPIase inhibition (Ki […])",
  "assay_type": "binding",
  "data": [
    {"smiles": "[Cu+2].c1ccc(-c2cc(-c3c4ccccc4cc4ccccc34)cc(-c3ccccn3)n2)nc1.c1ccc(-c2cc(-c3c4ccccc4cc4ccccc34)cc(-c3ccccn3)n2)nc1", "note": "[Cu2+ complex]", "values": [
      {"measurement": "Kd", "value": 45, "unit": "µM"}
    ]}
  ]
}
